Measurements from patent US9085561B2, “Cyclic urea- or lactam-substituted quinoxaline-type piperidines as ORL-1 modulators” (priority 2012, dated 2015).

What follows are compounds tested against human CYP2D6 (Homo sapiens, UniProt P10635) (assay: Cytochrome P450 2D6 inhibition (dextromethorphan O-demethylation, pooled human hepatic microsome)).
human CYP2D6, sequence (P10635 whole entry): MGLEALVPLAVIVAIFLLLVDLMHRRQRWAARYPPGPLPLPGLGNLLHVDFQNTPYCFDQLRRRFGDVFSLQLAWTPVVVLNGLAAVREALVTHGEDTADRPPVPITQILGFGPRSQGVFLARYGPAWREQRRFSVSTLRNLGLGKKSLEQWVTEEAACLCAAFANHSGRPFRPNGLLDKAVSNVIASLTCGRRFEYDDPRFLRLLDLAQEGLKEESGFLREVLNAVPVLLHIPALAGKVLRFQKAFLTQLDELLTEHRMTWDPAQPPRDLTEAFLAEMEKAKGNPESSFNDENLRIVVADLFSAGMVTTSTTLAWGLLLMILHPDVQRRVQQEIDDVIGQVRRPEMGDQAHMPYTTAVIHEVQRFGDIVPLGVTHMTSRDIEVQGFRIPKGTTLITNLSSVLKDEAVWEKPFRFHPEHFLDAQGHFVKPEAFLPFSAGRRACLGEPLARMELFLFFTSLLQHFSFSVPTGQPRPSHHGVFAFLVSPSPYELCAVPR
Cc1cc(=O)[nH]c(=O)n1-c1nc2ccccc2n([C@H]2C[C@H]3CCC[C@@H](C2)N3[C@H]2C[C@@H]3CCC[C@@H](C3)C2)c1=O [Compound U065, 1-(4-((1R,1R,3r,3′R,5S,5′S)-[3,9′-bi(9′-azabicyclo[3.3.1]nonan)]-3′-yl)-3-oxo-3,4-dihydroquinoxalin-2-yl)-6-methylpyrimidine-2,4(1H,3H)-dione] was tested, and the IC50 was greater than 20 µM.
Nc1ccn(-c2nc3ccccc3n([C@H]3C[C@H]4CC[C@@H](C3)N4[C@@H]3C[C@@H]4CCCC[C@@H](C4)C3)c2=O)c(=O)n1 [Compound U066, 3-(4-amino-2-oxopyrimidin-1(2H)-yl)-1-((1R,3R,5S)-8-((1R,6S,8s)-bicyclo[4.3.1]decan-8-yl)-8-azabicyclo[3.2.1]octan-3-yl)quinoxalin-2(1H)-one] was tested, and the IC50 was greater than 20 µM.
Nc1nc(=O)n(-c2nc3ccccc3n([C@H]3C[C@H]4CCC[C@@H](C3)N4[C@@H]3C[C@@H]4CCCC[C@@H](C4)C3)c2=O)cc1F [Compound U067] was tested, and the IC50 was greater than 20 µM.
With O=C(O)Cn1c(-c2nc3ccccc3n([C@H]3C[C@H]4CC[C@@H](C3)N4[C@@H]3C[C@@H]4CCCC[C@@H](C4)C3)c2=O)cccc1=O [DD1b(iii), 2-(6-(4-((1R,3R,5S)-8-((1R,6S,8s)-bicyclo[4.3.1]decan-8-yl)-8-azabicyclo[3.2.1]octan-3-yl)-3-oxo-3,4-dihydroquinoxalin-2-yl)-2-oxopyridin-1(2H)-yl)acetic acid] the IC50 was greater than 20 µM.
O=C(O)Cn1c(-c2nc3ccccc3n([C@H]3C[C@H]4CCC[C@@H](C3)N4[C@@H]3C[C@@H]4CCCC[C@@H](C4)C3)c2=O)cccc1=O [EE1b(iii), 2-(6-(4-((1R,3R,5S)-9-((1R,6S,8s)-bicyclo[4.3.1]decan-8-yl)-9-azabicyclo[3.3.1]nonan-3-yl)-3-oxo-3,4-dihydroquinoxalin-2-yl)-2-oxopyridin-1(2H)-yl)acetic acid] gave an IC50 greater than 20 µM.
With O=c1[nH]nc(-c2nc3ccccc3n([C@H]3C[C@H]4CCC[C@@H](C3)N4[C@@H]3C[C@@H]4CCCC[C@@H](C4)C3)c2=O)[nH]1 [EE6b(i)(i), 1-((1R,3R,5S)-9-((1R,6S,8s)-bicyclo[4.3.1]decan-8-yl)-9-azabicyclo[3.3.1]nonan-3-yl)-3-(5-oxo-4,5-dihydro-1H-1,2,4-triazol-3-yl)quinoxalin-2(1H)-one] the IC50 was greater than 20 µM.
Compound O=C(O)Cn1c(-c2nc3ccccc3n([C@H]3C[C@H]4CC[C@@H](C3)N4[C@H]3C[C@@H]4CCC[C@@H](C4)C3)c2=O)cccc1=O [Q1a(iii), 2-(6-(4-((1R,3R,5S)-8-((1R,3r,5S)-bicyclo[3.3.1]nonan-3-yl)-8-azabicyclo[3.2.1]octan-3-yl)-3-oxo-3,4-dihydroquinoxalin-2-yl)-2-oxopyridin-1(2H)-yl)acetic acid] has an IC50 greater than 20 µM.
For O=c1cncc(-c2nc3ccccc3n([C@H]3C[C@H]4CCC[C@@H](C3)N4[C@H]3C[C@@H]4CCC[C@@H](C4)C3)c2=O)[nH]1 [R3a(i), 1-((1R,1′R,3r,3′R,5S,5′S)-[3,9′-bi(9′-azabicyclo[3.3.1]nonan)]-3′-yl)-3-(6-oxo-1,6-dihydropyrazin-2-yl)quinoxalin-2(1H)-one], the IC50 was greater than 20 µM.
Work on O=c1[nH]nc(-c2nc3ccccc3n([C@H]3C[C@H]4CCC[C@@H](C3)N4[C@H]3C[C@@H]4CCC[C@@H](C4)C3)c2=O)[nH]1 [R6a(i)(i), 1-((1R,1′R,3r,3′R,5S,5′S)-[3,9′-bi(9′-azabicyclo[3.3.1]nonan)]-3′-yl)-3-(5-oxo-4,5-dihydro-1H-1,2,4-triazol-3-yl)quinoxalin-2(1H)-one] yielded an IC50 greater than 20 µM.
In the case of O=C(O)Cn1cccc(-c2nc3ccccc3n([C@H]3C[C@H]4CCC[C@@H](C3)N4[C@H]3C[C@@H]4CCC[C@@H](C4)C3)c2=O)c1=O [R15a(iii), 2-(3-(4-((1R,1′R,3r,3′R,5S,5′S)-[3,9′-bi(9′-azabicyclo[3.3.1]nonan)]-3′-yl)-3-oxo-3,4-dihydroquinoxalin-2-yl)-2-oxopyridin-1(2H)-yl)acetic acid], the IC50 is reported as greater than 20 µM.
